These results are taken from patent publication US20250215029A1 (Recludix Pharma, Inc., priority 2022, published 2025).

The target of assay [1] is T1, Recombinant STAT3 protein (STAT3 (G127-I722)) (Homo sapiens, UniProt P40763).
T1 construct: Recombinant STAT3 protein (STAT3 (G127-I722))
Briefly: STAT3 Fluorescence Polarization (FP) Assay. As to conditions: STAT3 (G127-I722) 25 nM, probe 5-FAM-GpYLPQTV-NH2 2 nM, 45-minute incubation; read-out: STAT3 (FP assay IC50 class). Format: binding. An outline of the steps:
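Compounds in serial dilution receive a premix of STAT3 (G127-I722, 25 nM) and fluorescent phosphotyrosine peptide 5-FAM-GpYLPQTV-NH2 (2 nM) at pH 7.4. After 45 min at room temperature, FP is measured and IC50 derived by nonlinear regression.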
(Fluorescence polarisation rises when a labelled molecule tumbles more slowly, as on binding a larger partner.)

Assay [2] concerns the target T2, Recombinant STAT6 protein (STAT6 (W123-T658)) (Homo sapiens, UniProt P42226).
T2 construct: Recombinant STAT6 protein (STAT6 (W123-T658))
T2 sequence (P42226 123-658): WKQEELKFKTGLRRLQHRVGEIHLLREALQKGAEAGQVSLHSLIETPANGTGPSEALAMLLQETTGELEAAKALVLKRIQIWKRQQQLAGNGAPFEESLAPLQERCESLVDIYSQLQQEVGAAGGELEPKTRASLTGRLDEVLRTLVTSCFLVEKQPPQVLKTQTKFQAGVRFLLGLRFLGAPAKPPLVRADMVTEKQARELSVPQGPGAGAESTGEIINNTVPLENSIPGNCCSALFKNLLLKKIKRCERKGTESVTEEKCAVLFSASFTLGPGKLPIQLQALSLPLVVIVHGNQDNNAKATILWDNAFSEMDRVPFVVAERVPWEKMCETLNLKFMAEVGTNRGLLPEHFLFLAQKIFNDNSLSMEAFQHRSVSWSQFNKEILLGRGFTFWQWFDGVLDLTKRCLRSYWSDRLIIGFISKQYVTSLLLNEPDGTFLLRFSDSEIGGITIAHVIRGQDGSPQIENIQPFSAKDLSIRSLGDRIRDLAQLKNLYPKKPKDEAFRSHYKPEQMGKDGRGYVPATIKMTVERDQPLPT
Briefly: STAT6 Fluorescence Polarization (FP) Assay. As to conditions: STAT6 (W123-T658) 250 nM, probe 5-FAM-Ap[…]-NH2 2 nM, 45-minute incubation; read-out: STAT6 (FP assay IC50 class). Format: binding. The essentials:
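Probe displacement format: serially diluted compounds incubated 45 min at room temperature with 2 nM fluorescent phosphopeptide and 250 nM STAT6 (W123-T658) in pH 7.4 HEPES buffer, 1% DMSO final. Polarization signal plotted against log concentration, IC50 fitted by nonlinear regression.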

T1 sequence (P40763 127-722): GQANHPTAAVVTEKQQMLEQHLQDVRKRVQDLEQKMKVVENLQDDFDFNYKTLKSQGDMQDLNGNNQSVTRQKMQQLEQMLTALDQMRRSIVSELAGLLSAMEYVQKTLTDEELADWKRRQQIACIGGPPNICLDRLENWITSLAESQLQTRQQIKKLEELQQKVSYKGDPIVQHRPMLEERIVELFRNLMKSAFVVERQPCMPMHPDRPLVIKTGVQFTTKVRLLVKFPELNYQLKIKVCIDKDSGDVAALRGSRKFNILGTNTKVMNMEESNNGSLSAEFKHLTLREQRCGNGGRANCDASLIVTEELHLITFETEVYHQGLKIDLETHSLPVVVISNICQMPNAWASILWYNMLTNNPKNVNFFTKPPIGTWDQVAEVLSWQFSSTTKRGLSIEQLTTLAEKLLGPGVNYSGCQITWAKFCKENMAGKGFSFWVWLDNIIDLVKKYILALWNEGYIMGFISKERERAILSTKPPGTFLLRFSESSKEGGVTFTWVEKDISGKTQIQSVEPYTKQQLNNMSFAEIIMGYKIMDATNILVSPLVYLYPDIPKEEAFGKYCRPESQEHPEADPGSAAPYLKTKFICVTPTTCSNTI

One may read the IC50 as the concentration needed to halve the response being measured. Take `N#CC1CN(C(=O)[C@@H]2C[C@@H](O)[C@@H]3C/C=C\C[C@H](NC(=O)c4cc5cc(C(F)(F)P(=O)(O)O)ccc5s4)C(=O)N23)CC1c1ccccc1` (mixture of isomers) [Compound 729, ((2-(((1R,3S,6S,10aS,Z)-3-((rel-trans)-3-cyano-4-phenylpyrrolidine-1-carbonyl)-1-hydroxy-5-oxo-1,2,3,5,6,7,10,10a-octahydropyrrolo[1,2-a]azocin-6-yl)carbamoyl)benzo [b]thiophen-5-yl)difluoromethyl) phosphonic acid]: the half-maximal inhibitory concentration (IC50) in assay [1] is 0.1 to 1 µM; in assay [2], at most 0.3 µM.

For the compound `O=C(N[C@H]1CCC[C@H]2CC[C@@H](C(=O)N3CC(c4cccnc4)C3)N2C1=O)c1cc2nc(CP(=O)(O)O)ccc2s1` [Compound 208, ((2-(((3S,6S,9aS)-5-oxo-3-(3-(pyridin-3-yl)azetidine-1-carbonyl)octahydro-1H-pyrrolo[1,2-a]azepin-6-yl)carbamoyl)thieno[3,2-b]pyridin-5-yl)methyl)phosphonic acid], the IC50 in assay [1] is 1 to 10 µM; in assay [2], 3 to 30 µM.

Regarding `CC[C@@H]1CC[C@H](NC(=O)c2cc3cc(C(F)P(=O)(O)O)ccc3s2)C(=O)N2[C@H](CC[C@H]2C(=O)N2C[C@@H](C#N)[C@H](c3ccccc3)C2)C1` (single isomer, unassigned) [Compound 235], the values for the IC50 in assay [1] and in assay [2] were 1 to 10 µM and at most 0.3 µM, respectively.

Regarding `CN=S(C)(=O)CC1(OC)CN(C(=O)[C@@H]2CC[C@@H]3CCC[C@H](NC(=O)c4cc5cc(C(F)(F)P(=O)(O)O)ccc5s4)C(=O)N32)C1` (stereo partly drawn) [Compound 827, ((2-(((3S,6S,9aS)-3-(3-((N,S-dimethyl-sulfonimidoyl)methyl)-3-methoxyazetidine-1-carbonyl)-5-oxooctahydro-1H-pyrrolo[1,2-a]azepin-6-yl)carbamoyl)benzo [b]thiophen-5-yl)difluoromethyl) phosphonic acid], the half-maximal inhibitory concentration (IC50) in assay [1] lay within 0.1 to 1 µM; in assay [2], 3 to 30 µM.

With `O=C(N[C@H]1CCC[C@H]2CC[C@@H](C(=O)N3CC(c4nccc(C(F)(F)F)n4)C3)N2C1=O)c1cc2cc(C(F)(F)P(=O)(O)O)ccc2s1` [Compound 812, (difluoro(2-(((3S,6S,9aS)-5-oxo-3-(3-(4-(trifluoromethyl)pyrimidin-2-yl)azetidine-1-carbonyl)octahydro-1H-pyrrolo[1,2-a]azepin-6-yl)carbamoyl)benzo [b]thiophen-5-yl)methyl) phosphonic acid], the results for the IC50 in assay [1] and in assay [2] were 0.1 to 1 µM and 3 to 30 µM, respectively.

Turning to `CCc1ccncc1C1CN(C(=O)[C@@H]2CC[C@@H]3CCC[C@H](NC(=O)c4cc5cc(CP(=O)(O)O)ccn5n4)C(=O)N32)C1` [Compound 618, ((2-(((3S,6S,9aS)-3-(3-(4-ethylpyridin-3-yl)azetidine-1-carbonyl)-5-oxooctahydro-1H-pyrrolo[1,2-a]azepin-6-yl)carbamoyl)pyrazolo[1,5-a]pyridin-5-yl)methyl) phosphonic acid], the IC50 in assay [1] is 1 to 10 µM; in assay [2] it was 3 to 30 µM.

Consider `O=C(N[C@H]1CCC[C@H]2CC[C@@H](C(=O)N3CC(c4ncccc4F)C3)N2C1=O)c1cc2cc(C(F)P(=O)(O)O)ccc2s1` (stereo partly drawn) [Compound 623, (fluoro(2-(((3S,6S,9aS)-3-(3-(3-fluoropyridin-2-yl)azetidine-1-carbonyl)-5-oxooctahydro-1H-pyrrolo[1,2-a]azepin-6-yl)carbamoyl)benzo [b]thiophen-5-yl)methyl) phosphonic acid], for which the IC50 was in the range of 0.1 to 1 µM in assay [1] and 3 to 30 µM in assay [2].

In the case of `CO[C@H]1CCN(c2ccncc2C2CN(C(=O)[C@@H]3CC[C@@H]4CCC[C@H](NC(=O)c5cc6cc(CP(=O)(O)O)ccc6s5)C(=O)N43)C2)C1` [Compound 686, ((2-(((3S,6S,9aS)-3-(3-(4-((S)-3-methoxypyrrolidin-1-yl)pyridin-3-yl)azetidine-1-carbonyl)-5-oxooctahydro-1H-pyrrolo[1,2-a]azepin-6-yl)carbamoyl)benzo [b]thiophen-5-yl)methyl) phosphonic acid], the IC50 was under 0.1 µM in assay [1] and 3 to 30 µM in assay [2].
